Experimental data reported in patent publication US20100048462A1, “TRUNCATED PTH PEPTIDES WITH A CYCLIC CONFORMATION” (Zealand Pharma A/S, priority 2006, published 2010).
Bridge positions count the residues as written; N and C are the ends. Square brackets hold non-standard residues; d marks the D form. Peptide text beside a SMILES is read from it. I, II: the chains in the order shown. hArg = N=C(N)NCCCC[C@H](N)C(=O)O; Ac5c = NC1(C(=O)O)CCCC1; Aib = CC(C)(N)C(=O)O

Legend:
Saos-2 PTH1R = molecular target: T1, Saos-2 PTH1R (Homo sapiens, UniProt Q03431); test: cAMP-efficacy assay in Saos-2 cells; format: cell-based; conditions: for Emax ± SEM: relative effect to the control (SEQ ID NO: 32)
T1 construct: endogenous in cells; host or cells: Saos-2
T1 sequence (Q03431 27-593): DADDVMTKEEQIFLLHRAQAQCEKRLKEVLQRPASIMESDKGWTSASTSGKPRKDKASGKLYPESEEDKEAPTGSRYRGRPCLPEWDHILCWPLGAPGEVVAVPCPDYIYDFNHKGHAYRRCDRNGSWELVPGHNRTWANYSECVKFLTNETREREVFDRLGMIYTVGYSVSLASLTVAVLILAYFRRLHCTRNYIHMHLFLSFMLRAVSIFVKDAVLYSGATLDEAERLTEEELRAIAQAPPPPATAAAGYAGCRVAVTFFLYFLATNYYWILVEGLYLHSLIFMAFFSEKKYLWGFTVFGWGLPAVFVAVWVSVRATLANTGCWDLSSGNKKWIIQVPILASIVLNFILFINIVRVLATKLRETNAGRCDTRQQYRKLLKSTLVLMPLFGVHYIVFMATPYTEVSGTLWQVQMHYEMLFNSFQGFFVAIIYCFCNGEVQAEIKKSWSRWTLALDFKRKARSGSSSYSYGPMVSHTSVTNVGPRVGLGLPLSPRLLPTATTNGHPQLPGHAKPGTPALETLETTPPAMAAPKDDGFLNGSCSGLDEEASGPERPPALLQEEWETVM
Procedure, shortened: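 cAMP accumulation was assayed by FlashPlate after 15 min peptide stimulation at 37 °C of Saos-2 cells in Tyrode's buffer containing 100 μM IBMX and 0.1% BSA, with the reaction stopped by ice-cold HCl. Variable-slope logistic fitting gave EC50/pEC50, Hill coefficient and Emax, with single or triplicate points.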

PTH receptor 1 = molecular target: T2, PTH receptor 1 (Mus musculus, UniProt P41593); test: MC3T3-E1 cAMP efficacy assay; format: cell-based, murine; conditions: MC3T3-E1 cells
T2 construct: host or cells: MC3T3-E1 subclone 4
T2 sequence (P41593 27-591): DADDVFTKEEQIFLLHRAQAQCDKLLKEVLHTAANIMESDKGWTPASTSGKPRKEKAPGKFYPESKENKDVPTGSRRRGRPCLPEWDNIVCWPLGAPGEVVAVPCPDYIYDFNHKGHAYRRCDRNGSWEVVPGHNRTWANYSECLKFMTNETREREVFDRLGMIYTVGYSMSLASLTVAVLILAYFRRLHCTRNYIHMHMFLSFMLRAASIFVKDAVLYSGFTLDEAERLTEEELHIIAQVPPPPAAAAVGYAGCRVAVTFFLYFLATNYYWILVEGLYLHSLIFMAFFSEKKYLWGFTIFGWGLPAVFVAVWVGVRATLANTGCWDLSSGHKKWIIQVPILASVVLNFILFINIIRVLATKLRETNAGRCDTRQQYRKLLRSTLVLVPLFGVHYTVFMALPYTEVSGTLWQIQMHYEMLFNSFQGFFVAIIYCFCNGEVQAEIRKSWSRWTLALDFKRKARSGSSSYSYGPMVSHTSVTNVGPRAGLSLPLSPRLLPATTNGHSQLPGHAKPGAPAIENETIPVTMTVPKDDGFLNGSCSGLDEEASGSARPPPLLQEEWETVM
Description: MC3T3-E1 cells were seeded at 10,000 cells/well in 96-microtiter plates and grown overnight before the efficacy assays. On the day of analysis the growth medium was carefully removed by suction. Cells were washed once with 200 μl TB/0.1% […]. The buffer was replaced with 100 μl reaction mixture (±test peptide, +100 μM IBMX) and incubated at 37° C. for 13 min. The reaction was stopped by addition of 25 μl of ice-cold 0.5 M HCl. Cells were in the following incubated on ice for 60 min. 75 μl acetate-buffer were added to each well in a 96-well cAMP FlashPlate. […] FlashPlates were incubated overnight at 4° C., emptied by suction and counted in a TopCounter.
Determinations were performed in triplicates at all doses. Standards were included as single determinations, duplicates or triplicates in each experiment, preferentially on each plate.
Efficacy was evaluated in the concentration range from […].
Concentration-dependent cAMP responses were imported into GraphPad Prism vers. 4, transformed and plotted. Curves were fitted with a function for sigmoidal dose response curve non-linear fit Y=Bottom+(Top-Bottom)/(1+10̂((LogEC50-X))) where X is the logarithm of concentration and Y is the response. Y starts at Bottom and goes to Top with a sigmoid shape. pEC50 and the maximally inducible concentration of cAMP were evaluated. Overall statistical differences were analyzed using one-way ANOVA. Post-hoc comparisons were made by the use of Fisher's Least Significance Test. Results were considered significant, when p was lower than 0.05.

`CC[C@H](C)[C@H](NC(=O)[C@H](CCC(=O)O)NC(=O)C(C)(C)NC(=O)[C@@H](NC(=O)C1(N)CCCC1)C(C)C)C(=O)N[C@@H](CCC(N)=O)C(=O)N[C@@H](CC(C)C)C(=O)N[C@@H](CC(C)C)C(=O)N[C@@H](Cc1c[nH]cn1)C(=O)N[C@@H](CCC(N)=O)C(=O)N[C@@H](CCCCNC(=N)N)C(=O)N[C@@H](C)C(=O)N[C@H]1CCCCNC(=O)C[C@@H](C(N)=O)NC(=O)[C@H](CC(N)=O)NC(=O)[C@H](CC(C)C)NC(=O)[C@H](Cc2c[nH]c3ccccc23)NC1=O` [SEQ ID NO: 19, H-Ac5c-Val-Aib-Glu-Ile-Gln-Leu-Leu-His-Gln-Har-Ala-Lys( )-Trp-Leu-Asn-Asp( )-NH2] (H-[Ac5c]V[Aib]EIQLLHQ[hArg]AKWLND-NH2; lactam 13-17) was tested, and the EC50 (Saos-2 PTH1R; cAMP, 100 μM IBMX, 37° C. 15 min, suffix of label = salt tested) was 10.2 nM and the “Emax ± SEM” value (Saos-2 PTH1R) was 1.05 ± 0.04.

In the case of `CC[C@H](C)[C@H](NC(=O)[C@H](CCC(=O)O)NC(=O)C(C)(C)NC(=O)[C@@H](NC(=O)C1(N)CCCC1)C(C)C)C(=O)N[C@@H](CCC(N)=O)C(=O)N[C@@H](CC(C)C)C(=O)N[C@@H](CCSC)C(=O)N[C@@H](Cc1c[nH]cn1)C(=O)N[C@@H](CCC(N)=O)C(=O)N[C@@H](CCCCNC(=N)N)C(=O)N[C@@H](C)C(=O)N[C@H]1CCCCNC(=O)C[C@@H](C(N)=O)NC(=O)[C@H](CC(C)C)NC(=O)[C@H](Cc2c[nH]c3ccccc23)NC(=O)[C@@H](NC(=O)[C@H](C)NC(=O)[C@H](CCCCNC(=N)N)NC(=O)[C@H](CCC(N)=O)NC(=O)[C@H](Cc2c[nH]cn2)NC(=O)[C@H](CCSC)NC(=O)[C@H](CC(C)C)NC(=O)[C@H](CCC(N)=O)NC(=O)[C@@H](NC(=O)[C@H](CCC(=O)O)NC(=O)C(C)(C)NC(=O)[C@@H](NC(=O)C2(N)CCCC2)C(C)C)[C@@H](C)CC)CCCCNC(=O)C[C@@H](C(N)=O)NC(=O)[C@H](CC(C)C)NC(=O)[C@H](Cc2c[nH]c3ccccc23)NC1=O` [SEQ ID NO: 33, (H-Ac5c-Val-Aib-Glu-Ile-Gln-Leu-Met-His-Gln-Har-Ala-Lys( )-Trp-Leu-Asp( )-NH2)2] (I: H-[Ac5c]V[Aib]EIQLMHQ[hArg]AKWLD-NH2 / II: H-[Ac5c]V[Aib]EIQLMHQ[hArg]AKWLD-NH2; amide I:13-II:16, I:16-II:13 (inferred)), the “agonist strength relative to SEQ ID NO: 30” value (PTH receptor 1; cAMP) is reported as “eight-fold stronger agonist”, the “Emax ± SEM [pmol/well]” value (PTH receptor 1; maximally inducible cAMP) is reported as 5.0 ± 0.3 pmol/well and the “Emax ± SEM” value (Saos-2 PTH1R) is reported as 1.10 ± 0.04.
